“And” between values parts separate entries of the source, which are not always exact repeats. Equal values may be shown once. Read-outs that look alike come from different tables or passages of the source.
Key:
[1] = target: acyl CoA:cholesterol acyltransferase (ACAT); settings: read-out: Ki (with respect to oleoyl-CoA); cited from earlier work
[2] = system: DC-3F hamster lung cells; test: Cytotoxicity toward DC-3F hamster lung cells; settings: Mesocricetus auratus, DC3F, read-out: IC50 for inhibiting cell growth, Table 7, DC-3F
[3] = system: DC-3F/ADII cells; test: cells; settings: Mesocricetus auratus, DC3F
[4] = system: cultured macrophages; settings: read-out: IC50, inhibition of cholesterol ester formation; cited from earlier work
[5] = system: HCT116(VM)46 cells; test: Cytotoxicity (XTT, 72 hr) in multidrug resistant HCT116(VM)46 cells; type: cell-based; settings: IC50 HCT116(VM)46 / HCT116; 4320 min
Procedure: All drug exposures were for 72 hr and cytotoxicity was measured by XTT tetrazolium dye assay.

[6] = system: P388/DX leukemic cells; test: Drug combination of adriamycin and 5-N-acetyl-ardeemin against P388/DX cell growth (XTT); type: cell-based; settings: drug alone
Source text: | microplate, 25,000 cell/well, N = 2.

[7] = system: P388/DX tumor; test: Combination therapy of adriamycin & 5-N-acetyl-ardeemin or verapamil in B6D2F1 mice bearing P388/DX tumor; settings: for Days survived: individual mice 1-5, listed as Adr.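 As to all read-outs here: male BDF mice implanted intraperitoneally with P388/DX cells, 10^6 per mouse, dosed from day 1 on a QDX4, QWX2 schedule, five mice per dose group.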
Source text: ^a Male BDF mice were inoculated P388/DX, 10^6 cells/mouse, i.p.
starting day 1, QDX4, QWX2. There were five mice at every dose and ten

[8] = system: P388/0; test: Survival time evaluation for BDF mice bearing P388/0; settings: for survival time: individual mice
Source text: ^a Male BDF mice were inoculated with p388/0, 10E6 cells/mouse, I.P.

[9] = system: P388 leukemic cells; test: Drug combination of adriamycin and 5-N-acetyl-ardeemin against P388 cell growth (XTT); settings: Mus musculus, P388, drug alone
Source text: microplate, 15,000 cell/well, N = 2. Platting cells on day 1, add drugs o
day 2 and XTT assay on day 5.

[10] = system: P388/DX; test: Survival time evaluation for BDF mice bearing P388/DX; settings: for survival time: individual mice
[11] = system: P388/O tumor; test: Combination therapy of adriamycin & 5-N-acetyl-ardeemin or verapamil in B6D2F1 mice bearing P388/O tumor; settings: for Days survived: individual mice 1-5, listed as Adr;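 as to all read-outs here: male BDF mice carrying P388/O given intraperitoneally, dosing begun on day 1 on a QDX4, QWX2 schedule, five animals per dose level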
Source text: ^a Male BDF mice were inoculated P388/O, 10^6 cells/mouse, i.p. a
starting day 1, QDX4, QWX2.

[12] = system: P388/0 tumor; test: Combination therapy of adriamycin, vinblastine and des-Me-N-acetyl-ardeemin in B6D2F1 mice bearing P388/0 tumor; settings: for Days survived: individual mice 1-5
Procedure: ^a Male BDF mice were inoculated with P388/O, 10^6 cell/mouse,
i.p. on day 0; and started treatment on day 1, i.p., Q5Dx5, besides mice
with dose VBL 3.0 and VBL 3.0 mg/kg + DMNAA 50 mg/kg, only one injection
i.p., on day 1. There were five mice at every dose and ten in the control

[13] = system: CCRF-CEM cells; test: IC50 of vinblastine in CCRF-CEM with/without MDR reversing agent; type: cell-based; settings: Homo sapiens, agent concentration added given in Table 6B, read-out: IC50 of VBL in the presence of reversing agent (A)
[14] = system: CCRF-CEM cells; test: Two drug combination study of vinblastine and 5-N-acetylardeemin on CCRF-CEM, 72 hr, XTT assay; type: cell-based; settings: Homo sapiens, Table 2, drug alone, read-out: Dm (median-effect concentration)
Source text: CCRF-CEM Cell Line at 72-HR Exposure Time. Based on XTT

[15] = system: CCRF-CEM/VBL cells; test: IC50 of vinblastine in CCRF-CEM/VBL with/without MDR reversing agent; type: cell-based, human
[16] = system: CCRF-CEM cells; test: Cytotoxicity / growth inhibition of CCRF-CEM leukemic cells; settings: Homo sapiens, wild type CCRF-CEM
[17] = system: CCRF-CEM/VM-1 cells; settings: IC50 of VBL, CCRF-CEM/VM-1 to CCRF-CEM
[18] = system: vinblastine-resistant CCRF-CEM cells (CCRF-CEM/VBL100); test: Two drug combination study of vinblastine and 5-N-acetylardeemin on vinblastine-resistant CCRF-CEM, 72 hr, XTT assay; type: cell-based, human
Source text: Vinblastine-resistant CCRF-CEM Cell Line at 72-HR Exposure Time.
Based on XTT Assay. (large-scale study)

[19] = system: vinblastine-resistant CCRF-CEM cells (CCRF-CEM/VBL100); test: as above; type: cell-based, human; set-up: dose of drug at FA (drug alone): unit not given here; settings: for Dose reduction index / dose of drug at FA (drug alone): Table 3
[20] = system: CCRF-CEM/VM-1 cells; test: cells; settings: Homo sapiens, read-out: IC50 of VBL in the presence of reversing agent (C)
[21] = system: CCRF-CEM/VBL100 cells; settings: human, ccrf-cem/vbl100 vs ccrf-cem

## C=CC(C)(C)C12Nc3ccccc3C1(O)CC1C(=O)N3C(CC4(O)c5ccccc5NC34C(C)(C)C=C)C(=O)N12 (stereo not shown) [Gypsetin]
[1]
  Ki: 5.5 µM
[2]
  IC50: 3780 nM
[3]; read-out: IC50 for inhibiting cell growth
  IC50: 2250 nM
[4]
  IC50: 650 nM

## CC(=O)O[C@H]1C(=O)[C@@]2(C)[C@H]([C@H](OC(=O)c3ccccc3)[C@]3(O)C[C@H](OC(=O)[C@H](O)[C@@H](NC(=O)c4ccccc4)c4ccccc4)C(C)=C1C3(C)C)[C@]1(OC(C)=O)CO[C@@H]1C[C@@H]2O [paclitaxel]
[5]
  R/S ratio: 132

## COc1cccc2c1C(=O)c1c(O)c3c(c(O)c1C2=O)C[C@@](O)(C(=O)CO)C[C@@H]3O[C@H]1C[C@H](N)[C@H](O)[C@H](C)O1 [Adriamycin, adriamycin]
[2]
  IC50: 30 nM
[3]; read-out: IC50 for inhibiting cell growth, Table 7, DC-3F/SDII
  IC50: 380 nM
[6]
  IC50: 2140 nM
[7]; Adr. 0.5 mg/kg
  % ILS: +49%
  MST: 11.3 days
  Days survived: 7.5 days and 10.5 days and 12.25 days and 14.0 days
[7]; Adr. 1.0 mg/kg
  % ILS: +75%
  MST: 13.25 days
  Days survived: 11.5 days and 12.25 days and 13.25 days and 16.0 days
[7]; Adr. 2.0 mg/kg
  MST: 15.55 days
  Days survived: 14.0 days and 15.0 days and 15.25 days and 16.5 days and 17.0 days
[7]; Adr. 3.0 mg/kg
  % ILS: +130%
  MST: 17.4 days
  Days survived: 14.0 days and 17.5 days and 21.0 days
[7]; Adr. 3.0 mg/kg, day 14
  deaths of toxicity: Two mice died of toxicity of drugs
[8]; adriamycin 0.333 mg/kg
  % ILS: 85%
  MST: 13.75
  survival time: 12.25 and 13.0 and 14.25 and 15.5
[8]; adriamycin 1.0 mg/kg
  % ILS: 129%
  MST: 17.0
  survival time: 14.25 and 15.5 and 18.0 and 20.25
[8]; adriamycin 3.0 mg/kg
  % ILS: 145%
  MST: 18.19
  survival time: 16.0 and 17.25 and 19.25 and 20.25
[9]
  IC50: 228 nM
[10]; adriamycin 0.333 mg/kg
  % ILS: 24%
  MST: 9.0
  survival time: 8.0 and 8.5 and 9.5 and 10.0
[10]; adriamycin 1.0 mg/kg
  % ILS: 37%
  MST: 9.75
  survival time: 9.0 and 10.0 and 10.25 and 10.5
[10]; adriamycin 3.0 mg/kg
  % ILS: 48%
  MST: 10.75
  survival time: 10.0 and 11.5 and 12.25
[11]; Adr 0.5 mg/kg
  % ILS: +128%
  MST: 17.3 days
  Days survived: 15.5 days and 16.0 days and 17.0 days and 18.0 days and 20.0 days
[11]; Adr 1.0 mg/kg
  % ILS: +152%
  MST: 19.1 days
  Days survived: 16.0 days and 19.0 days and 20.5 days and 21.0 days
[11]; Adr 2.0 mg/kg
  % ILS: +178%
  MST: 21.1 days
  Days survived: 19.0 days and 20.5 days and 21.0 days and 22.5 days
[11]; Adr 3.0 mg/kg
  % ILS: +181%
  MST: 19.8 days
  Days survived: 12.5 days and 16.0 days and 20.5 days and 24.6 days and 26.5 days
[11]; Adr 3.0 mg/kg, day 12.5 and 15
  deaths of toxicity: Two mice died of toxicity of drugs
[12]; Adr. 3.0 mg/kg
  % ILS: +63%
  MST: 13.60 days
[12]; Adr. 3.0 mg/kg, listed as Adr.
  Days survived: 10.5 days and 13.5 days and 14.5 days and 15.0 days
[12]; Adr. 5.0 mg/kg
  % ILS: +81%
  MST: 15.10 days
[12]; Adr. 5.0 mg/kg, listed as Adr.
  Days survived: 10.5 days and 14.0 days and 16.0 days and 17.0 days and 18.0 days

## CC[C@]1(O)C[C@@H]2CN(CCc3c([nH]c4ccccc34)[C@@](C(=O)OC)(c3cc4c(cc3OC)N(C)[C@H]3[C@@](O)(C(=O)OC)[C@H](OC(C)=O)[C@]5(CC)C=CCN6CC[C@]43[C@@H]65)C2)C1 [Vinblastine]
[13]
  IC50: 0.83 nM
[14]
  IC50: 1.68 nM
[15]; Homo sapiens, CCRF-CEM, agent concentration added given in Table 6B, read-out: IC50 of VBL in the presence of reversing agent (B)
  IC50: 832 nM
[15]; IC50 of VBL, CCRF-CEM/VBL to CCRF-CEM
  (b)/(a): 761
[16]
  IC50: 1.7 nM
[17]
  (C)/(A): 0.54
[18]; 1:2000 ratio, at 98.4% inhibition
  dose reduction in combination: 41 fold
[18]; Homo sapiens, CCRF-CEM, Table 4 (large-scale study), drug alone, read-out: Dm (median-effect concentration)
  IC50: 393 nM
[19]; Homo sapiens, CCRF-CEM, Table 3, drug alone, read-out: Dm (median-effect concentration)
  IC50: 371 nM
[19]; FA .9843
  Dose reduction index: 41.85
  dose of drug at FA (drug alone): 2.092
[19]; FA .9861
  Dose reduction index: 22.03
  dose of drug at FA (drug alone): 2.203
[19]; FA .9898
  Dose reduction index: 10.05
  dose of drug at FA (drug alone): 2.512
[12]; VBL 3.0 mg/kg, one injection
  % ILS: +64%
[12]; VBL 3.0 mg/kg, one injection, listed as VBL
  Days survived: 5.0 days and 6.0 days and 9.5 days and 15.5 days and 16.0 days
[12]; VBL 3.0 mg/kg, one injection, toxic deaths excluded
  MST: 13.67 days
[12]; VBL 3.0 mg/kg, day 5 and 6
  deaths of toxicity: Two mice died of toxicity of drug
[20]
  IC50: 0.45 nM
[21]
  resistance of CCRF-CEM/VBL100 compared with CCRF-CEM: 220 fold

From patent publication US6147076A, “Analogues of N-acetylardeemin, method of preparation and uses thereof” (priority 1996, dated 2000)
